Laboratory results taken from patent US20030134859A1 (SANKYO COMPANY, LIMITED, priority 2000, published 2003).
Read-outs that look alike come from different tables or passages of the source.

What was measured:
[1] = tested on: Rat white adipocytes; assay: Inhibition of the differentiation of adipocytes (Oil Red O); assay type: cell-based; settings: 100 nM test compound, 5 days, Oil Red O ABS550, control = 100%, blank = 0%, Table 3; for activity at 0.1 µM: Rattus norvegicus, Adipocyte, 120 h, read-out: Rate of Differentiation (%)
Procedure: Rat white adipocytes contained in the white adipocyte culture kit purchased from HOKUDO were used. As the medium for proliferation and for differentiation-inducing, the medium contained in the white adipocyte culture kit purchased from HOKUDO was used. The cells in the present experiment were cultured in a CO2 incubator (37° C., 95% R.H., 5% CO2).
Immediately after arrival of the purchased cells, all medium for transportation was discarded and replaced with 5 ml of proliferation medium (/25 cm^2-flask) and the cells were cultured for one day. Then, a cell suspension was prepared with proliferation medium so as to be 83,000 cells/mL, and the cell suspension was plated into a type I 96-well collagen-coated microplate (SUMITOMO BAKELITE CO., ltd.) so as to be 5,000 cells/well (60 μL/well).
On the next day, all the proliferation medium was discarded and replaced with 147 μL/well of differentiation-inducing medium. Further, 1) in the group treated with the test compound, 3 μL/well of the solution, in which a test compound (100 μM) was dissolved in DMSO solution and diluted with differentiation-inducing medium by 20 times (final concentration of the test compound: 100 nM, final concentration of DMSO solution: 0.1% (v/v)), were added to the well where the cells were plated. 2) In the control group, 3 μL/well of DMSO solution that was diluted with differentiation-inducing medium by 20 times (final concentration of DMSO: 0.1% (v/v)) were added to the well where the cells were plated. Further, 3) in the blank group, 3 μL/well of DMSO solution that was diluted with differentiation-inducing medium by 20 times (final concentration: 0.1% (v/v)), was added to the blank well.
After culturing for 5 days, all differentiation-inducing medium was discarded and replaced with 60 μL of 10% (v/v) formaldehyde solution (for fixation) in each well and the cells were kept stationary for 20 min at room temperature. After this, the fixative solution was discarded and replaced with 60 μL of 0.2% (v/v) Triton X (Sigma-Aldrich Japan K. K.) solution in each well and kept stationary for 5 min at room temperature. Then all Triton X solution was discarded and replaced with 60 μL of 60% (v/v) isopropanol solution containing dissolved Oil Red O (Sigma-Aldrich Japan K. K.) so as to be 0.3%, which was adipose tissue staining solution, and the well was left stationary for 10 min at room temperature. After the adipose tissue staining solution was discarded, the well was washed twice with 60 JIL of 60% isopropanol solution. Then, 100 μL of the DMSO solution were added to each well and stirred for 5 min at room temperature, The absorbance was measured at 550 nm (ABS550) with a multi-plate reader (LabSystems), and the stained amount with Oil Red O was determined. The measured level at ABS550 in the control group was defined as 100%, while the level at ABS550 in the blank group was defined as 0%. The differentiation rate (%) of the adipocytes treated with the test compound was calculated.

[2] = tested on: leptin production; assay: Enhancing activity for leptin production in adipocytes (ELISA); assay type: cell-based, rat; settings: Rattus norvegicus, Adipocyte, leptin concentration as % of control group, read-out: Facilitating activity to produce leptin; for activity at 0.001 µM: 1 nm; for activity at 0.01 µM: 10 nm; for activity at 0.1 µM: 100 nm
Procedure: Hanks solution was used for collection of adipose tissue. The Hanks solution was prepared by filtration of a mixed solution (pH: 7.5) of 120 mM NaCl, 4.8 mM KCl, 0.74 mM MgSO4, 0.30 mM Na2HPO4, 0.40 mM KH2PO4, 20 mM HEPES, 0.05% (w/v) glucose, 2% (w/v) BSA (Sigma-Aldrich Japan K. K., Cat. No. A7888), 0.95 mM CaCl2, 4.17 mM NaHCO3 and 1% (v/v) penicillin-streptomycin liquid (GIBCO BRL, Cat. No. 15140-122). The adipocytes were cultured in Dulbecco's modified Eagle's medium (GIBCO BRL, Cat. No. 11995-040) mixed with DMEM/F-12 (GIBCO BRL, Cat. No. 11320-033) at a ratio of 1:1, and added 0.2% (v/v) Hanks solution, 0.2 μg/L sodium selenite (GIBCO BRL, Cat. No. 13012-018), 0.002% (v/v) ethanolamine, 25 mM HEPES and 1% (v/v) penicillin-streptomycin liquid (GIBCO BRL, Cat. No. 15140-122). As many as possible of the other reagents used were special grade. In this experiment, the cells were cultured in a CO2 incubator (37° C., 95% humidity, 5% CO2).
Male Wistar Imamichi rats of 6 weeks old were sacrificed by bleeding following decapitation, and adipose tissue was removed from the epididymis and sectioned after the vessels were removed in warmed Hanks solution at 37° C. and were weighed. One (1) mL of Hanks solution containing 10 mg collagenase (Wako Pure Chemical Industries, Ltd., 034-10533) was added to the adipose tissue prepared. The solution was transferred into a tube having a volume of 50 mL, and the cells were evenly dispersed by incubation under gentle shaking at 37° C., 90 rpm, for 50 min. Then 20 mL of Hanks solution were added and filtrated through Nylon-mesh with a mesh diameter of 200 μm for removal of undigested tissue pieces. The floating adipocytes were separated from sediments and substances located in the lower layer by centrifugation at 1,000 rpm for 1 min at room temperature. The sediment and 22 mL of the low layer were pulled out with a probe, and the floating adipocytes were recovered. This procedure was repeated twice with Hanks solution and for 4 times with the culture medium. After these procedures the adipocytes were suspended in the culture medium at a volume of 60 mL per 1 g of the adipose tissue weighed previously. 100 μL of the suspended solution were plated in each well of a 96-well microplate (ASAHI TECHNO GLASS Corp.) In the group treated with the test compound, 1 μL/well of DMSO solution containing the dissolved the test compound at concentrations of 200 μM, 20 μM, 2 μM and 0.2 μM (final concentrations of the test compound: 1 μM, 100 nM, 10 nM and 1 nM, respectively) was plated in each of the well. In the control group, 1 μL/well of DMSO (final concentration: 0.1% (v/v)) was plated in each well. The plate was placed stationary in a CO2 incubator for 1 hr or longer, and the contents in the solution were equilibrated at 37° C. After they were equilibrated, the solution in each well was stirred with a magnetic stirrer in a water bath and the suspended solution maintained at 37° C. was plated into each well of the plate at 100 μL/well. After incubation of the cells for 24 hr, the suspended solution of cells was filtrated through a filter for the microplate, MultiScreen (MILLOPORE, MDV-N65). The concentration of leptin in the filtrated solution was determined with ELISA methods by using a Rat Leptin Determination Kit-IBL (Immuno-Biological Laboratories Co., Ltd., Cat. No. 17195). The facilitating activity of the compound to produce leptin was calculated from the following equation based on the concentration of leptin determined.
Facilitating Activity of the Compound to Produce Leptin (%)=(A/B)×100
A: Concentration of Leptin in the Treated Group with the Test Compound.
B: Concentration of Leptin in the Control Group.

For `CC(C)(C)OC(=O)N1CCN(c2ccc(NC(=O)c3cc([N+](=O)[O-])ccc3Cl)cc2)CC1` [Example 132, N-[4-(4-tert-Butoxycarbonylpiperazin-1-yl)phenyl]-(2-chloro-5-nitrophenyl)carboxamide], which activity at 0.1 µM [1] is on record?
Its activity at 0.1 µM is 26.9%.

And the activity at 1 µM ([2]; 24 h)?
The activity at 1 µM was 127%.

What about the activity at 0.001 µM ([2]; 24 h) of the same compound?
Its activity at 0.001 µM is 123%.

What about the activity at 0.01 µM ([2]; 24 h) of the same compound?
The activity at 0.01 µM was 137%.

And the activity at 0.1 µM ([2]; 24 h)?
Its activity at 0.1 µM is 119%.

Which activity at 0.1 µM [1] does the source give for `O=C(Nc1ccc(-c2ccc(NC(=O)c3cc([N+](=O)[O-])ccc3Cl)cc2)cc1)c1cc([N+](=O)[O-])ccc1Cl` [Example 163, 4-[4-[(2-Chloro-5-nitrophenyl)carbonylamino)phenyl]phenyl-(2-chloro-5-nitrophenyl)carboxamide] here?
The activity at 0.1 µM was 48%.

What about the activity at 1 µM ([2]; 24 hr) of the same compound?
Its activity at 1 µM is 124%.

And the activity at 0.001 µM ([2]; 24 hr)?
The activity at 0.001 µM was 108%.

And the activity at 0.01 µM ([2]; 24 hr)?
The activity at 0.01 µM was 117%.

What about the activity at 0.1 µM ([2]; 24 hr) of the same compound?
The activity at 0.1 µM was 118%.

With `O=C(Nc1ccc(-c2ccc(-n3cccc3)cc2)cc1)c1cc([N+](=O)[O-])ccc1Cl` [Example 186, N-[4-[4-(Pyrrol-1-yl)phenyl]phenyl]-(2-chloro-5-nitrophenyl)carboxamide] as the compound, how does the activity at 0.1 µM [1] read?
Its activity at 0.1 µM is 56.3%.

And the activity at 1 µM ([2]; 24 h)?
The activity at 1 µM was 133%.

And the activity at 0.01 µM ([2]; 24 h)?
The activity at 0.01 µM was 118%.

And the activity at 0.1 µM ([2]; 24 h)?
The activity at 0.1 µM was 117%.

For `CCCCCCN(CCC)c1ccc(-c2ccc(NC(=O)c3cc([N+](=O)[O-])ccc3Cl)cc2)cc1` [Example 198, N-[4-[4-(N-Hexyl-N-propylamino)phenyl]phenyl]-(2-chloro-5-nitrophenyl)carboxamide], which activity at 0.1 µM [1] is on record?
The activity at 0.1 µM was 48.2%.

What about the activity at 1 µM ([2]; 24 h) of the same compound?
Its activity at 1 µM is 111%.

And the activity at 0.1 µM ([2]; 24 h)?
The activity at 0.1 µM was 111%.

`CN1c2ccccc2N=C(c2ccc(NC(=O)c3cc([N+](=O)[O-])ccc3Cl)cc2)c2cc3c(cc21)C(C)(C)CCC3(C)C` [Example 240, N-[4-(5,7,7,10,10-Pentamethyl-7,8,9,10-tetrahydro-5H-5,13-diazabenzo[4,5]cyclohepta[1,2-b]naphthalen-12-yl)phenyl]-(2-chloro-5-nitrophenyl)carboxamide] was tested. Which activity at 0.1 µM [1] did it give?
The activity at 0.1 µM was 35.2%.

For `NC(=O)Nc1ccc(-c2ccc(NC(=O)c3cc([N+](=O)[O-])ccc3Cl)cc2)cc1` [Example 243, N-[4-[4-(Aminocarbonylamino)phenyl]phenyl]-(2-chloro-5-nitrophenyl)carboxamide], which activity at 0.1 µM [1] is on record?
Its activity at 0.1 µM is 41.1%.

For `COc1cccc(NC(=O)Nc2ccc(-c3ccc(NC(=O)c4cc([N+](=O)[O-])ccc4Cl)cc3)cc2)c1` [Example 247, N-[4-[4-[(3-Methoxyphenyl)aminocarbonylamino]phenyl]phenyl]-(2-chloro-5-nitrophenyl)carboxamide], which activity at 0.1 µM [1] is on record?
The activity at 0.1 µM was 54%.

`O=C(NC(=S)Nc1ccc(-c2ccc(NC(=O)c3cc([N+](=O)[O-])ccc3Cl)cc2)cc1)c1ccccc1` [Example 250, N-[4-[4-(Benzoylaminothiocarbonylamino)phenyl]phenyl]-(2-chloro-5-nitrophenyl)carboxamide] was tested. Which activity at 0.1 µM [1] did it give?
Its activity at 0.1 µM is 40.8%.

For `Nc1nc(-c2ccc(NC(=O)c3cc([N+](=O)[O-])ccc3Cl)cc2)cs1` [Example 255, N-[4-(2-Aminothiazol-4-yl)phenyl]-(2-chloro-5-nitrophenyl)carboxamide], which activity at 0.1 µM [1] is on record?
The activity at 0.1 µM was 55%.

Which “Rate of Differentiation (%)” value [1] does the source give for `CC(C)(C)OC(=O)Nc1ccc2nc(NC(=O)c3cc([N+](=O)[O-])ccc3Cl)sc2c1` [Example 260, N-[(6-tert-Butoxycarbonylamino)benzothiazol-2-yl]-(2-chloro-5-nitrophenyl)carboxamide] here?
Its value is 84.6%.

How did the activity at 0.1 µM [1] turn out when `CC(=O)Nc1nc(-c2ccc(NC(=O)c3cc([N+](=O)[O-])ccc3Cl)cc2)cs1` [Example 265, N-[4-(2-Acetylaminothiazol-4-yl)phenyl]-(2-chloro-5-nitrophenyl)carboxamide] was run?
Its activity at 0.1 µM is 80.8%.

`CC(=O)Nc1nc(-c2cccc(NC(=O)c3cc([N+](=O)[O-])ccc3Cl)c2)cs1` [Example 266, N-[3-(2-Acetylaminothiazol-4-yl)phenyl]-(2-chloro-5-nitrophenyl)carboxamide] was tested. Which activity at 0.1 µM [1] did it give?
The activity at 0.1 µM was 63.5%.

With `CCOC(=O)NC(=S)NCCc1ccc(NC(=O)c2cc([N+](=O)[O-])ccc2Cl)cc1` [Example 272, N-[4-(2-Ethoxycarbonylaminothiocarbonylaminoethyl)phenyl]-(2-chloro-5-nitrophenyl)carboxamide] as the compound, how does the activity at 0.1 µM [1] read?
The activity at 0.1 µM was 41.7%.

How did the activity at 0.1 µM [1] turn out when `O=C(Nc1cccc(CCO)c1)c1cc([N+](=O)[O-])ccc1Cl` [Example 275, N-[3-(2-Hydroxyethyl)phenyl]-(2-chloro-5-nitrophenyl)carboxamide] was run?
Its activity at 0.1 µM is 47.9%.

How did the “Rate of Differentiation (%)” value [1] turn out when “N-[4-(3-Methanesulfonylaminophenyl)thioazol-2-yl]-(2-chloro-5-nitrophenyl)carboxamide [Example 278]” was run?
Its value is 68.6%.
